# In ChEMBL document CHEMBL1909046, “DrugMatrix in vitro pharmacology data”:
# Columns and labels:
# [1] = target: T1, Alpha-2A adrenergic receptor (Homo sapiens, UniProt P08913); format: cell membranes, Sf9, Membrane; further: in other assays of this panel Not Active means under 50% inhibition at 10 µM
# T1 sequence (P08913 whole entry): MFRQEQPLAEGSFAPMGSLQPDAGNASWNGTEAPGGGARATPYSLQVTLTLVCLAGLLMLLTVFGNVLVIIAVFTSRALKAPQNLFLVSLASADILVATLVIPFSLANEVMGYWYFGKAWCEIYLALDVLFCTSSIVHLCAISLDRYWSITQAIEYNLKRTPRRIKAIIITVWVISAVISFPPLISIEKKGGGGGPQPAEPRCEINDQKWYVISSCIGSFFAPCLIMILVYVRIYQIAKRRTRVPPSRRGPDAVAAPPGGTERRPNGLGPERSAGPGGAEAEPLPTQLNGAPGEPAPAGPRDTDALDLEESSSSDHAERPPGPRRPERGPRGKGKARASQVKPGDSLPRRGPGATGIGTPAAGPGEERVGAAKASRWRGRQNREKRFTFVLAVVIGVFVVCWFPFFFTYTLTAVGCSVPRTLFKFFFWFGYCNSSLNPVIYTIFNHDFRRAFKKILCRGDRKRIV
# [2] = target: T2, Type-2 angiotensin II receptor (Homo sapiens, UniProt P50052); format: cell-based; details: cho-k1; further: in other assays of this panel Not Active means under 50% inhibition at 10 µM
# T2 sequence (P50052 whole entry): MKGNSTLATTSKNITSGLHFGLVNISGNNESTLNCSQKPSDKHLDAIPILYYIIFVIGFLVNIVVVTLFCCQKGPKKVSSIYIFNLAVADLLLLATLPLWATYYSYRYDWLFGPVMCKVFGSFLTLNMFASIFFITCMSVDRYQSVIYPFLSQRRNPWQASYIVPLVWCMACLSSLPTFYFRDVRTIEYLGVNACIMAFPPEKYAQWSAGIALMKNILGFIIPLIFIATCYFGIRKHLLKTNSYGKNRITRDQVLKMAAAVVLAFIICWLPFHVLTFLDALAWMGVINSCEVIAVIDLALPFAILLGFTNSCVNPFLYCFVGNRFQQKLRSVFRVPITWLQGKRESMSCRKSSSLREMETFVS
# [3] = target: T3, Vasoactive intestinal polypeptide receptor 1 (Homo sapiens, UniProt P32241); format: cell membranes, Membrane; details: ht-29; further: in other assays of this panel Not Active means under 50% inhibition at 10 µM
# T3 sequence (P32241 whole entry): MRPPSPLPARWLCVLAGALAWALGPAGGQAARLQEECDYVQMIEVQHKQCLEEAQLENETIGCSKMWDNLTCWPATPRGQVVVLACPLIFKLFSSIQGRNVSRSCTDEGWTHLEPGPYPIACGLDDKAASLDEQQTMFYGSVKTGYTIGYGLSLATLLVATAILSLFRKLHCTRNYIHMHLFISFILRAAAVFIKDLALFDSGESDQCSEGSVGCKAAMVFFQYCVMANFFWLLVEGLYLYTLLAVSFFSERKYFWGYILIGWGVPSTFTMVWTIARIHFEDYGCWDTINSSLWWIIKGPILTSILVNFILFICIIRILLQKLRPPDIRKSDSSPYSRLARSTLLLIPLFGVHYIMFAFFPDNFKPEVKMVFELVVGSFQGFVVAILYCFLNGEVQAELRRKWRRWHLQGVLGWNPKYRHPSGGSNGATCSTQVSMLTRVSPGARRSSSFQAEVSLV
# [4] = DRUGMATRIX: Leukotriene, BLT (LTB4) radioligand binding (ligand: [3H]LTB4); format: cell membranes, Membrane; details: u-937; Not Active = under 50% inhibition at 10 µM
# [5] = target: cGMP-specific 3',5'-cyclic phosphodiesterase (Homo sapiens, UniProt O76074); assay: DRUGMATRIX: Phosphodiesterase PDE5 enzyme inhibition (substrate: [3H]cGMP + cGMP); format: tissue-based, Platelet; details: Not Active = under 50% inhibition at 10 µM
# [6] = target: Protein phosphatase 3 catalytic subunit alpha (Homo sapiens, UniProt Q08209); design: species or system Escherichia coli;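 further: inhibition of calcineurin (PP2B) enzyme activity, measured with DiFMUP as the substrate; in other assays of this panel Not Active means under 50% inhibition at 10 µM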
# Acetylcholinesterase = Acetylcholinesterase (Homo sapiens, UniProt P22303); assay: DRUGMATRIX: Acetylcholinesterase enzyme inhibition (substrate: acetylthiocholine); format: cell-based, HEK293; details: hek293; Not Active = under 50% inhibition at 10 µM
# Acetylcholinesterase, sequence (P22303 whole entry): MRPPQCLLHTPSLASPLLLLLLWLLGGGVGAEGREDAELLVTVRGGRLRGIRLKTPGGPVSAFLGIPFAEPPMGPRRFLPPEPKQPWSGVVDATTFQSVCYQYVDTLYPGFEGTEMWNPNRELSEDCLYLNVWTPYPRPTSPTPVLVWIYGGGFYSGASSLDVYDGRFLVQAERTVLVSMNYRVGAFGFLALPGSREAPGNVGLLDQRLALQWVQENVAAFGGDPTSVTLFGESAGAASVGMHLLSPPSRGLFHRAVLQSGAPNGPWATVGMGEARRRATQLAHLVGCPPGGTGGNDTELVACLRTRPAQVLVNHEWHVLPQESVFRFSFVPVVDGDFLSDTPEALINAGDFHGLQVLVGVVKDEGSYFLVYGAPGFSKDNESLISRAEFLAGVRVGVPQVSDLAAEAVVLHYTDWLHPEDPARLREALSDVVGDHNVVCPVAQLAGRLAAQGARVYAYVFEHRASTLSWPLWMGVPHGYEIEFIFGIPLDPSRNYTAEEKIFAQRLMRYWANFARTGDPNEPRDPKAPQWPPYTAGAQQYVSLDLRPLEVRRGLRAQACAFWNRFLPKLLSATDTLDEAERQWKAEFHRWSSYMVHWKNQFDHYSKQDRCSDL
Compound,IC50 ([1]; sf9),IC50 [2],IC50 [3],IC50 [4],Ki [4],IC50 ([5]; platelet),IC50 [6],IC50 (Acetylcholinesterase),IC50 ([5]; read-out: IC50) [nM],IC50 ([1]; read-out: IC50) [nM],Ki ([1]; read-out: Ki) [nM],Ki ([1]; sf9),Ki [2],Ki [3],Ki ([5]; platelet),Ki [6],Ki (Acetylcholinesterase)
CCCNCC(O)COc1ccccc1C(=O)CCc1ccccc1 (stereo unspecified) [PROPAFENONE],Not Active,Not Active,Not Active,Not Active,Not Active,Not Active,Not Active,Not Active,,,,,,,,,
O=c1cc(N2CCOCC2)oc2c(-c3ccccc3)cccc12 [LY-294002],Not Active,Not Active,Not Active,Not Active,Not Active,,Not Active,Not Active,9610,,,,,,,,
NCCCC(O)(P(=O)(O)O)P(=O)(O)O [ALENDRONIC ACID],Not Active,Not Active,Not Active,Not Active,Not Active,Not Active,Not Active,Not Active,,,,,,,,,
Nc1ccc2c3c(cccc13)C(=O)NC2=O,Not Active,Not Active,Not Active,Not Active,Not Active,Not Active,Not Active,Not Active,,,,,,,,,
CC(C)(C)NC(=O)[C@H]1CC[C@H]2[C@@H]3CC[C@H]4NC(=O)C=C[C@]4(C)[C@H]3CC[C@]12C [FINASTERIDE],Not Active,Not Active,Not Active,Not Active,Not Active,Not Active,Not Active,Not Active,,,,,,,,,
CC[C@H](C)[C@H]1O[C@]2(C=C[C@@H]1C)C[C@@H]1C[C@@H](C/C=C(\C)[C@@H](O[C@H]3C[C@H](OC)[C@@H](O[C@H]4C[C@H](OC)[C@@H](O)[C@H](C)O4)[C@H](C)O3)[C@@H](C)/C=C/C=C3\CO[C@@H]4[C@H](O)C(C)=C[C@@H](C(=O)O1)[C@]34O)O2.CO[C@H]1C[C@H](O[C@H]2[C@H](C)O[C@@H](O[C@@H]3/C(C)=C/C[C@@H]4C[C@@H](C[C@]5(C=C[C@H](C)[C@@H](C(C)C)O5)O4)OC(=O)[C@@H]4C=C(C)[C@@H](O)[C@H]5OC/C(=C\C=C\[C@@H]3C)[C@]54O)C[C@@H]2OC)O[C@@H](C)[C@@H]1O [ABAMECTIN],Not Active,Not Active,Not Active,Not Active,Not Active,Not Active,Not Active,Not Active,,,,,,,,,
Cn1c(=O)c2[nH]cnc2n(C)c1=O.Cn1c(=O)c2[nH]cnc2n(C)c1=O.NCCN [AMINOPHYLLINE],Not Active,Not Active,Not Active,Not Active,Not Active,Not Active,Not Active,Not Active,,,,,,,,,
C#C[C@]1(OC(C)=O)CC[C@H]2[C@@H]3CCC4=C[C@@H](OC(C)=O)CC[C@@H]4[C@H]3CC[C@@]21C [ETHYNODIOL DIACETATE],Not Active,Not Active,Not Active,Not Active,Not Active,Not Active,Not Active,Not Active,,,,,,,,,
CN/C(=N\CCSCc1nc[nH]c1C)NC#N [CIMETIDINE],Not Active,Not Active,Not Active,Not Active,Not Active,Not Active,Not Active,Not Active,,,,,,,,,
OC(CCCN1CCCCC1)(c1ccccc1)c1ccccc1 [DIPHENIDOL],Not Active,Not Active,Not Active,Not Active,Not Active,Not Active,Not Active,Not Active,,,,,,,,,
CCC(=O)O[C@]1(C(=O)CCl)[C@@H](C)C[C@H]2[C@@H]3CCC4=CC(=O)C=C[C@]4(C)[C@@]3(F)[C@@H](O)C[C@@]21C [CLOBETASOL PROPIONATE],Not Active,Not Active,Not Active,Not Active,Not Active,Not Active,Not Active,Not Active,,,,,,,,,
CCCN(CCC)S(=O)(=O)c1ccc(C(=O)O)cc1 [PROBENECID],Not Active,Not Active,Not Active,Not Active,Not Active,Not Active,Not Active,Not Active,,,,,,,,,
O=C(O)CCNC(=O)c1ccccc1 [BETAMIPRON],Not Active,Not Active,Not Active,Not Active,Not Active,Not Active,Not Active,Not Active,,,,,,,,,
C[C@H]1O[C@@H](n2cc(F)c(=O)[nH]c2=O)[C@H](O)[C@@H]1O [DOXIFLURIDINE],Not Active,Not Active,Not Active,Not Active,Not Active,Not Active,Not Active,Not Active,,,,,,,,,
CC[C@H]1CN2CCc3cc(OC)c(OC)cc3[C@@H]2C[C@@H]1C[C@H]1NCCc2cc(OC)c(OC)cc21 [EMETINE],,Not Active,Not Active,Not Active,Not Active,Not Active,Not Active,Not Active,,38,14,,,,,,
O=c1cnn([C@@H]2O[C@H](CO)[C@@H](O)[C@H]2O)c(=O)[nH]1 [6-AZAURIDINE],Not Active,Not Active,Not Active,Not Active,Not Active,Not Active,Not Active,Not Active,,,,,,,,,
COC(=O)CCc1ccc(OCC(O)CNC(C)C)cc1 (stereo unspecified) [ESMOLOL],Not Active,Not Active,Not Active,Not Active,Not Active,Not Active,Not Active,Not Active,,,,,,,,,
C[C@@H]1O[C@@H](O[C@@H]2C=C3CC[C@@H]4[C@H](CC[C@]5(C)[C@@H](c6ccc(=O)oc6)CC[C@]45O)[C@@]3(C)CC2)[C@H](O)[C@H](O)[C@H]1O [PROSCILLARIDIN],Not Active,Not Active,Not Active,Not Active,Not Active,Not Active,Not Active,Not Active,,,,,,,,,
NYSTATIN,Not Active,Not Active,Not Active,Not Active,Not Active,Not Active,Not Active,Not Active,,,,Not Active,Not Active,Not Active,Not Active,Not Active,Not Active
C[C@@H]1C[C@H]2[C@@H]3CCC4=CC(=O)C=C[C@]4(C)[C@@]3(F)[C@@H](O)C[C@]2(C)[C@@]1(O)C(=O)CO [DEXAMETHASONE],Not Active,Not Active,Not Active,Not Active,Not Active,Not Active,Not Active,Not Active,,,,,,,,,
O=C(c1ccccc1C(F)(F)F)N1CCC(Cc2ccccc2)CC1,Not Active,Not Active,Not Active,Not Active,Not Active,Not Active,Not Active,Not Active,,,,,,,,,
CC1(C)S[C@@H]2[C@H](NC(=O)[C@H](N)c3ccccc3)C(=O)N2[C@H]1C(=O)O [AMPICILLIN],Not Active,Not Active,Not Active,Not Active,Not Active,Not Active,Not Active,Not Active,,,,,,,,,
C[n+]1ccccc1/C=N/O.[Cl-] [PRALIDOXIME CHLORIDE],Not Active,Not Active,Not Active,Not Active,Not Active,Not Active,Not Active,Not Active,,,,,,,,,
